From PubChem BioAssay AID248 (DTP/NCI, 2004)
Values joined by “and” are separate entries in the source; they are usually repeats but may differ in a detail not shown here. Equal entries are not always repeated. Inconclusive results and toxic doses are left out.

Tested on: L1210 leukemia ip in BDF1 mice, survival T/C
Assay: NCI In Vivo Anticancer Drug Screen. Data for tumor model L1210 Leukemia (intraperitoneal) in B6D2F1 (BDF1) mice
Conditions: endpoint: mean survival time, higher = longer survival
Outline: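 In this screen, tumor-bearing mice given compound are compared to those given vehicle, and their survival values are reported as a treated-to-control quotient.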

[1] = dose: 100.0 mg/kg/injection, schedule: Q01DX009 (ip), vehicle: saline with Tween-80
[2] = dose: 200.0 mg/kg/injection, schedule: Q01DX009 (ip), vehicle: saline with Tween-80
[3] = dose: 400.0 mg/kg/injection, schedule: Q01DX009 (ip), vehicle: saline with Tween-80
[4] = dose: 100.0 mg/kg/injection, schedule: Q01DX001 (ip), vehicle: saline
[5] = dose: 200.0 mg/kg/injection, schedule: Q01DX001 (ip), vehicle: saline
[6] = dose: 100.0 mg/kg/injection, schedule: Q04DX003 (ip), vehicle: Klucel (hydroxypropylcellulose) (HPC)
[7] = dose: 200.0 mg/kg/injection, schedule: Q04DX003 (ip), vehicle: Klucel (hydroxypropylcellulose) (HPC)
[8] = dose: 400.0 mg/kg/injection, schedule: Q04DX003 (ip), vehicle: Klucel (hydroxypropylcellulose) (HPC)
[9] = dose: 100.0 mg/kg/injection, schedule: Q01DX001 (ip), vehicle: Klucel (hydroxypropylcellulose) (HPC)
[10] = dose: 200.0 mg/kg/injection, schedule: Q01DX001 (ip), vehicle: Klucel (hydroxypropylcellulose) (HPC)
[11] = dose: 400.0 mg/kg/injection, schedule: Q01DX001 (ip), vehicle: Klucel (hydroxypropylcellulose) (HPC)

**Q.** For `COc1ccc(CNCCNCCNCc2ccc(OC)cc2)cc1`, which T/C [1] is on record?
**A.** 107 % of control

**Q.** What about the T/C (dose: 100.0 mg/kg/injection, schedule: Q04DX003 (ip), vehicle: saline) of the same molecule?
**A.** 104 % of control

**Q.** What about the T/C [2] of the same molecule?
**A.** 109 % of control

**Q.** What about the T/C (dose: 200.0 mg/kg/injection, schedule: Q04DX003 (ip), vehicle: saline) of the same molecule?
**A.** 102 % of control

**Q.** What about the T/C [3] of the same molecule?
**A.** 102 % of control

**Q.** What about the T/C (dose: 400.0 mg/kg/injection, schedule: Q04DX003 (ip), vehicle: saline) of the same molecule?
**A.** 104 % of control

**Q.** What does the source list for `C=CCOc1c(Cl)cc(Cl)cc1Cl`?
**A.** T/C [4]: 100 % of control; T/C [5]: 100 % of control; T/C (dose: 400.0 mg/kg/injection, schedule: Q01DX001 (ip), vehicle: saline): 100 % of control

**Q.** How did the T/C [6] turn out when `O=C(CCC(=O)OCCBr)OCCBr` was run?
**A.** 110 % of control

**Q.** And the T/C [7]?
**A.** 102 % of control

**Q.** Which T/C [4] does the source give for `CCOC(=O)C(Cc1ccc(O)c(N(CCO)CCO)c1)N1C(=O)c2ccccc2C1=O` (stereo unspecified) here?
**A.** 101 % of control

**Q.** What about the T/C [5] of the same molecule?
**A.** 112 % of control

**Q.** For `NC(=O)Oc1c(Cl)cc(Cl)c(Cl)c1[N+](=O)[O-]`, which T/C (dose: 25.0 mg/kg/injection, schedule: Q04DX002 (ip), vehicle: Klucel (hydroxypropylcellulose) (HPC)) is on record?
**A.** 97 % of control

**Q.** What about the T/C (dose: 50.0 mg/kg/injection, schedule: Q04DX002 (ip), vehicle: Klucel (hydroxypropylcellulose) (HPC)) of the same molecule?
**A.** 104 % of control

**Q.** And the T/C (dose: 100.0 mg/kg/injection, schedule: Q04DX002 (ip), vehicle: Klucel (hydroxypropylcellulose) (HPC))?
**A.** 97 % of control

**Q.** For `CCOC(=O)CCCN(c1ccccc1CC(=O)OCC)S(C)(=O)=O`, which T/C (dose: 100.0 mg/kg/injection, schedule: Q01DX009 (ip), vehicle: Klucel (hydroxypropylcellulose) (HPC)) is on record?
**A.** 103 % of control

**Q.** And the T/C [6]?
**A.** 102 % of control

**Q.** And the T/C (dose: 200.0 mg/kg/injection, schedule: Q01DX009 (ip), vehicle: Klucel (hydroxypropylcellulose) (HPC))?
**A.** 94 % of control

**Q.** What about the T/C [7] of the same molecule?
**A.** 112 % of control

**Q.** What about the T/C (dose: 400.0 mg/kg/injection, schedule: Q01DX009 (ip), vehicle: Klucel (hydroxypropylcellulose) (HPC)) of the same molecule?
**A.** 97 % of control

**Q.** And the T/C [8]?
**A.** 100 % of control

**Q.** How did the T/C [1] turn out when `CC(=O)Oc1cc(C=O)cc(OC(C)=O)c1OC(C)=O` was run?
**A.** 106 % of control

**Q.** And the T/C (dose: 100.0 mg/kg/injection, schedule: Q04DX003 (ip), vehicle: saline with Tween-80)?
**A.** 106 % of control

**Q.** And the T/C [2]?
**A.** 118 % of control

**Q.** What about the T/C (dose: 200.0 mg/kg/injection, schedule: Q04DX003 (ip), vehicle: saline with Tween-80) of the same molecule?
**A.** 121 % of control

**Q.** And the T/C [3]?
**A.** 90 % of control

**Q.** What about the T/C (dose: 400.0 mg/kg/injection, schedule: Q04DX003 (ip), vehicle: saline with Tween-80) of the same molecule?
**A.** 108 % of control

**Q.** Which T/C (dose: 50.0 mg/kg/injection, schedule: Q04DX003 (ip), vehicle: Klucel (hydroxypropylcellulose) (HPC)) does the source give for `O=c1c2ccccc2[nH]c2ccccc12` here?
**A.** 103 % of control

**Q.** And the T/C [9]?
**A.** 95 % of control

**Q.** What about the T/C (dose: 100.0 mg/kg/injection, schedule: Q01DX Z (ip), vehicle: carboxymethylcellulose (CMC)) of the same molecule?
**A.** 96 % of control

**Q.** What about the T/C [6] of the same molecule?
**A.** 101 % of control

**Q.** And the T/C [10]?
**A.** 98 % of control

**Q.** And the T/C (dose: 200.0 mg/kg/injection, schedule: Q01DX Z (ip), vehicle: carboxymethylcellulose (CMC))?
**A.** 103 % of control

**Q.** What about the T/C [7] of the same molecule?
**A.** 106 % of control and 97 % of control

**Q.** And the T/C [11]?
**A.** 95 % of control

**Q.** What about the T/C (dose: 400.0 mg/kg/injection, schedule: Q01DX Z (ip), vehicle: carboxymethylcellulose (CMC)) of the same molecule?
**A.** 105 % of control

**Q.** What about the T/C [8] of the same molecule?
**A.** 103 % of control and 96 % of control

**Q.** `CC12CCC(=O)C=C1CCC1C2CCC2(C)C(C(=O)COC(=O)c3cc([N+](=O)[O-])c(N4CC4)c([N+](=O)[O-])c3)CCC12` (stereo unspecified) was tested. Which T/C (dose: 50.0 mg/kg/injection, schedule: Q01DX001 (sc), vehicle: steriod suspending solution) did it give?
**A.** 95 % of control

**Q.** And the T/C (dose: 60.0 mg/kg/injection, schedule: Q01DX015 (ip), vehicle: saline)?
**A.** 88 % of control

**Q.** What about the T/C (dose: 90.0 mg/kg/injection, schedule: Q01DX015 (ip), vehicle: saline) of the same molecule?
**A.** 86 % of control

**Q.** What about the T/C (dose: 100.0 mg/kg/injection, schedule: Q01DX001 (sc), vehicle: steriod suspending solution) of the same molecule?
**A.** 106 % of control

**Q.** What about the T/C (dose: 135.0 mg/kg/injection, schedule: Q01DX015 (ip), vehicle: saline) of the same molecule?
**A.** 88 % of control

**Q.** And the T/C (dose: 200.0 mg/kg/injection, schedule: Q01DX001 (sc), vehicle: steriod suspending solution)?
**A.** 97 % of control

**Q.** And the T/C (dose: 200.0 mg/kg/injection, schedule: Q01DX015 (ip), vehicle: saline)?
**A.** 91 % of control

**Q.** What about the T/C (dose: 400.0 mg/kg/injection, schedule: Q01DX001 (sc), vehicle: steriod suspending solution) of the same molecule?
**A.** 101 % of control

**Q.** What does the source list for `CCOC(=O)CCC(NC(=O)N(CCCl)CCCl)C(=O)OCC` (stereo unspecified)?
**A.** T/C (dose: 250.0 mg/kg/injection, schedule: Q01DX Z (ip), vehicle: water): 90 % of control; T/C (dose: 400.0 mg/kg/injection, schedule: Q01DX009 (ip), vehicle: saline): 183 % of control

**Q.** `CC(C)(C)OC(=O)COc1ccc(NC(=O)COc2ccc(Cl)c(Cl)c2)cc1` was tested. Which T/C [9] did it give?
**A.** 101 % of control

**Q.** And the T/C [10]?
**A.** 101 % of control

**Q.** And the T/C [11]?
**A.** 101 % of control
